{
  "source": "paper PMC8617627",
  "about": "“Novel DYRK1A Inhibitor Rescues Learning and Memory Deficits in a Mouse Model of Down Syndrome” (Pharmaceuticals, 2021)",
  "experiment_in_all_cases": "Kinase profile (33P ATP filter binding)",
  "assay_type_in_all_cases": "biochemical",
  "key": {"MARK4": {"biological_target": "T1, MARK4 (Homo sapiens, UniProt Q96L34)", "T1 sequence (Q96L34 1-752)": "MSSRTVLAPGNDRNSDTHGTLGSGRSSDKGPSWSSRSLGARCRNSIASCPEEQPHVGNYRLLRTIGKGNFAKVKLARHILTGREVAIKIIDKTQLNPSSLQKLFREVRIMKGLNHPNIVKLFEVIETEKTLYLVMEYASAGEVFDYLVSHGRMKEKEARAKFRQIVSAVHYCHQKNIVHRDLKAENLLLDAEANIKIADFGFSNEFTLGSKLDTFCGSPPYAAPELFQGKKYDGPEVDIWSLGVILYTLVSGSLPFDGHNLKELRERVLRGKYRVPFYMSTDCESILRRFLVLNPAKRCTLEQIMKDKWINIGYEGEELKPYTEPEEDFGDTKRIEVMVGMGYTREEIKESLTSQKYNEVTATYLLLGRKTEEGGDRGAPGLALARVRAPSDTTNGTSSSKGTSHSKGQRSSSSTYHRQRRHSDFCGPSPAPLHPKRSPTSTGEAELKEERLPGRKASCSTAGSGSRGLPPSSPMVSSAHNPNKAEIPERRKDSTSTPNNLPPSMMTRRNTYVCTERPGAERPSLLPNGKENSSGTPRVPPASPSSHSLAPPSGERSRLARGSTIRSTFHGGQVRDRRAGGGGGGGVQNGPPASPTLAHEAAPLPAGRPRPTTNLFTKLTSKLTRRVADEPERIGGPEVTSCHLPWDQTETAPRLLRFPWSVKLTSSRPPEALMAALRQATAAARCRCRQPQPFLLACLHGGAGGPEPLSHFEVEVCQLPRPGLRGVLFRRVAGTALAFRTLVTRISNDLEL"}, "NEK2a": {"biological_target": "T2, NEK2a (Homo sapiens, UniProt P51955)", "T2 sequence (P51955 1-445)": "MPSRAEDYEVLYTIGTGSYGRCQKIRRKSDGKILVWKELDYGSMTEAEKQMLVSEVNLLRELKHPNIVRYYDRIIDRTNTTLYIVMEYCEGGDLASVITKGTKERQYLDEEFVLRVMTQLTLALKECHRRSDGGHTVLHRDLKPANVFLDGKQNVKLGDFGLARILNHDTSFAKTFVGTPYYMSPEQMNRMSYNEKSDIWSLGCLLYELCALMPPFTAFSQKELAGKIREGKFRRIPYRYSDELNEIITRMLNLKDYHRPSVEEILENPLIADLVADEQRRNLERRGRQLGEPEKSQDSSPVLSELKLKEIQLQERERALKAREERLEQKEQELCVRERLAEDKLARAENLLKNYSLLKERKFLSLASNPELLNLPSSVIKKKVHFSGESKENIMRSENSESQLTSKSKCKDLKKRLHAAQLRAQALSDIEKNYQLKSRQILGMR", "conditions": "read-out: Remaining protein kinase activity"}, "PIM1": {"biological_target": "PIM1 (Homo sapiens, UniProt P11309)", "sequence (P11309 whole entry)": "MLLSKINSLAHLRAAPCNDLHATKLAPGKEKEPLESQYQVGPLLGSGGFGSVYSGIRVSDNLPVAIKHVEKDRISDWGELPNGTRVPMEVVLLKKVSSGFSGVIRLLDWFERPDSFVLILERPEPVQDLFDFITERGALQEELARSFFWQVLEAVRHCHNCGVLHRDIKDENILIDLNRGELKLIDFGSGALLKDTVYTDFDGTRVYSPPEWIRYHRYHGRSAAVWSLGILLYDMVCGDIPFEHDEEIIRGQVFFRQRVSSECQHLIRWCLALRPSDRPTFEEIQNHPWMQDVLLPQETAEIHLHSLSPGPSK", "conditions": "read-out: Remaining protein kinase activity"}, "PKBa": {"biological_target": "PKBa (Homo sapiens, UniProt P31749)", "sequence (P31749 whole entry)": "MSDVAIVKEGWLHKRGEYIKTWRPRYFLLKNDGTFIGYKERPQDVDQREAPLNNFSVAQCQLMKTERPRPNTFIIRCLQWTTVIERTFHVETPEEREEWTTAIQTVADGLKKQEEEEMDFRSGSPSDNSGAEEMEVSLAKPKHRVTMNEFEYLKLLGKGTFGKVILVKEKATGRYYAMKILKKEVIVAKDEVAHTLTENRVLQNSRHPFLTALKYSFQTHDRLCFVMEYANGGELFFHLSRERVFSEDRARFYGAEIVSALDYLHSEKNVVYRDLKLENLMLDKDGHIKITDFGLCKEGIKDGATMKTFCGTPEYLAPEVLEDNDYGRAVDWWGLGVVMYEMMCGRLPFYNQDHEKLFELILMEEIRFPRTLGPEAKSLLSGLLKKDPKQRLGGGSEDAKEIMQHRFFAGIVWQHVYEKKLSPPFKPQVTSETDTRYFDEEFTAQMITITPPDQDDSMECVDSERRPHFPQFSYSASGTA", "conditions": "read-out: Remaining protein kinase activity"}, "PKBb": {"biological_target": "PKBb (Homo sapiens, UniProt P31751)", "sequence (P31751 whole entry)": "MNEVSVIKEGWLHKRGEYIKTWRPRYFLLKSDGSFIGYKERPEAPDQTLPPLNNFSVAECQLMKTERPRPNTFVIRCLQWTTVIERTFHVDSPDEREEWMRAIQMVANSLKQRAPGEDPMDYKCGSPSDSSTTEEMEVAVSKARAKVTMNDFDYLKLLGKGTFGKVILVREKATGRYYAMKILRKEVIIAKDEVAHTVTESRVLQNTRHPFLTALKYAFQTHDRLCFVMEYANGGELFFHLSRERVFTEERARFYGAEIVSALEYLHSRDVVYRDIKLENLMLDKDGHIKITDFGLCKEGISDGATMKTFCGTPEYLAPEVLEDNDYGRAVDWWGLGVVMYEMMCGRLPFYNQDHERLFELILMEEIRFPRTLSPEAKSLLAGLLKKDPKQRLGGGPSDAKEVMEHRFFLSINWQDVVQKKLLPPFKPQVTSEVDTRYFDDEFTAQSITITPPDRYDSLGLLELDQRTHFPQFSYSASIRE", "conditions": "read-out: Remaining protein kinase activity"}, "PKCz": {"biological_target": "T3, PKCz (Homo sapiens, UniProt Q05513)", "T3 sequence (Q05513 1-592)": "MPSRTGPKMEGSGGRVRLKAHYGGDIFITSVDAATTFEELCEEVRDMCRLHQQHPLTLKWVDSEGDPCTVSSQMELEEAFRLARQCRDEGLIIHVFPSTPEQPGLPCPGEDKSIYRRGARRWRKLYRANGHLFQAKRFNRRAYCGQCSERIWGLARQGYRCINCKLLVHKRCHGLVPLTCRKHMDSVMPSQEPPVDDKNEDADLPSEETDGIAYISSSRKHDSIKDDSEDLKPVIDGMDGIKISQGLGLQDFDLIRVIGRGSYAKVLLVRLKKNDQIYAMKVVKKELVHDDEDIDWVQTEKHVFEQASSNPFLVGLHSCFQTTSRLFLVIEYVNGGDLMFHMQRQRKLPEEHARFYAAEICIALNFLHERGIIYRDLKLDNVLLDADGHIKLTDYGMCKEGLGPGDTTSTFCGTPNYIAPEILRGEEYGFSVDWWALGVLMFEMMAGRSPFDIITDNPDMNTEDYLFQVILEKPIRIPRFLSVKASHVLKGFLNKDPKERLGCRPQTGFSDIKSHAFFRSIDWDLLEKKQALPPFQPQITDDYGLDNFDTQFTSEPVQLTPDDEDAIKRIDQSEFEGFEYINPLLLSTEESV", "conditions": "read-out: Remaining protein kinase activity"}, "TTBK2": {"biological_target": "TTBK2 (Homo sapiens, UniProt Q6IQ55)", "sequence (Q6IQ55 whole entry)": "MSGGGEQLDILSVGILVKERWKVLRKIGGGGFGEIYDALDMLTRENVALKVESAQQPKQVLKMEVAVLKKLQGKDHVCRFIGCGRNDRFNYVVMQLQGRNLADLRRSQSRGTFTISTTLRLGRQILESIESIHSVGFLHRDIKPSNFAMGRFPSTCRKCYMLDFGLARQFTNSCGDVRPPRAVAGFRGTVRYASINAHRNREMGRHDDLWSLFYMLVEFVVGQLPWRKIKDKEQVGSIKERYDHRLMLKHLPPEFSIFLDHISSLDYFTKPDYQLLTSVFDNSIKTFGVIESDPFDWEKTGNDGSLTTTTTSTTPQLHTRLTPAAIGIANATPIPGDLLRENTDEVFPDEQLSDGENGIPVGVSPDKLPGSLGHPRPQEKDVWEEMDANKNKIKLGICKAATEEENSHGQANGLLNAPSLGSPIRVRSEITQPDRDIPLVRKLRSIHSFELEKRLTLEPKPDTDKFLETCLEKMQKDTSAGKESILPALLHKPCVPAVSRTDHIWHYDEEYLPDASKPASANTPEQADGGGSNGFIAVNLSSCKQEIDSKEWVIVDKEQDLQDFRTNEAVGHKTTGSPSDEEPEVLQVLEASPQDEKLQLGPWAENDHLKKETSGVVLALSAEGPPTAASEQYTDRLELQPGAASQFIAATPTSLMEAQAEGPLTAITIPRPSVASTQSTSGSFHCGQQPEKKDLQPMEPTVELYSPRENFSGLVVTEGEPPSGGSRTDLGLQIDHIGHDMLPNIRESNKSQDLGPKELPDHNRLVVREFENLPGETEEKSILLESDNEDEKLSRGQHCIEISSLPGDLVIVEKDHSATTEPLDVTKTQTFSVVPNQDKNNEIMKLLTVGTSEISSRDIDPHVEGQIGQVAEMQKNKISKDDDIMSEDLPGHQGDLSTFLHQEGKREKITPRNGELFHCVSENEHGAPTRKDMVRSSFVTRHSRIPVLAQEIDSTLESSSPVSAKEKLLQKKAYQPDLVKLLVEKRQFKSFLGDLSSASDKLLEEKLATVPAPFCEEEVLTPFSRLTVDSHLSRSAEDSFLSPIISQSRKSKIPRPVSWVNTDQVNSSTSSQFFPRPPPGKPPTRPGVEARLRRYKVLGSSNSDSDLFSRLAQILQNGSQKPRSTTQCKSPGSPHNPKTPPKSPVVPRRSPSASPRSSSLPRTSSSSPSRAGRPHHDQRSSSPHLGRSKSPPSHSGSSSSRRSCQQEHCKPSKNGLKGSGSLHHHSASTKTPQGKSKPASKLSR"}, "p38d MAPK": {"biological_target": "T4, p38d MAPK (Homo sapiens, UniProt O15264)", "T4 sequence (O15264 1-365)": "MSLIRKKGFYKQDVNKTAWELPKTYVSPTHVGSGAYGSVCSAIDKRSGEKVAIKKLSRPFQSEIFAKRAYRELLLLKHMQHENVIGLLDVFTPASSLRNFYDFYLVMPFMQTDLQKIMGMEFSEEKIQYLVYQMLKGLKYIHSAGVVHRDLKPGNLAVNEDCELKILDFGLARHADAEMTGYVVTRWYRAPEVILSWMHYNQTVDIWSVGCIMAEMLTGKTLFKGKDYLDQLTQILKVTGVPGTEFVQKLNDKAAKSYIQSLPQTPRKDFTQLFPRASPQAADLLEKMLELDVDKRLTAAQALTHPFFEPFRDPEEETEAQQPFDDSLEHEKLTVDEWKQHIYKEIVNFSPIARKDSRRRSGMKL", "conditions": "read-out: Remaining protein kinase activity"}},
  "note": "Like-named read-outs stand apart in the source and are kept apart here.",
  "data": [
    {"smiles": "COc1ccc2sc(-c3cncc(NC(C)=O)c3)nc2c1", "note": "[PST-001, N-(5-(5-Methoxybenzo[d]thiazol-2-yl)pyridin-3-yl)acetamide]", "values": [
      {"measurement": "Remaining protein kinase activity", "setting": "MARK4; 1 μM", "result": 121, "unit": "%"},
      {"measurement": "Remaining protein kinase activity", "setting": "MARK4; 100 μM", "result": 103, "unit": "%"},
      {"measurement": "remaining activity at 1 µM", "setting": "NEK2a", "result": 119, "unit": "%"},
      {"measurement": "remaining activity at 1 µM", "setting": "PIM1", "result": 98, "unit": "%"},
      {"measurement": "remaining activity at 100 µM", "setting": "PIM1", "result": 32, "unit": "%"},
      {"measurement": "remaining activity at 1 µM", "setting": "PKBa", "result": 116, "unit": "%"},
      {"measurement": "remaining activity at 100 µM", "setting": "PKBa", "result": 106, "unit": "%"},
      {"measurement": "remaining activity at 1 µM", "setting": "PKBb", "result": 112, "unit": "%"},
      {"measurement": "remaining activity at 100 µM", "setting": "PKBb", "result": 98, "unit": "%"},
      {"measurement": "remaining activity at 1 µM", "setting": "PKCz", "result": 119, "unit": "%"},
      {"measurement": "remaining activity at 100 µM", "setting": "PKCz", "result": 124, "unit": "%"},
      {"measurement": "Remaining protein kinase activity", "setting": "TTBK2; 1 μM", "result": 119, "unit": "%"},
      {"measurement": "Remaining protein kinase activity", "setting": "TTBK2; 100 μM", "result": 117, "unit": "%"},
      {"measurement": "remaining activity at 1 µM", "setting": "p38d MAPK", "result": 115, "unit": "%"},
      {"measurement": "remaining activity at 100 µM", "setting": "p38d MAPK", "result": 112, "unit": "%"}
    ]},
    {"smiles": "COc1ccc2sc(-c3cncc(N)c3)nc2c1", "note": "[compound 1, 5-(5-Methoxybenzo[d]thiazol-2-yl)pyridin-3-amine]", "values": [
      {"measurement": "Remaining protein kinase activity", "setting": "MARK4; 1 μM", "result": 131, "unit": "%"},
      {"measurement": "Remaining protein kinase activity", "setting": "MARK4; 100 μM", "result": 58, "unit": "%"},
      {"measurement": "remaining activity at 1 µM", "setting": "NEK2a; NEK2a, 1 μM", "result": 111, "unit": "%"},
      {"measurement": "remaining activity at 100 µM", "setting": "NEK2a; NEK2a, 100 μM", "result": 51, "unit": "%"},
      {"measurement": "remaining activity at 1 µM", "setting": "PIM1; PIM1, 1 μM", "result": 87, "unit": "%"},
      {"measurement": "remaining activity at 100 µM", "setting": "PIM1; PIM1, 100 μM", "result": 24, "unit": "%"},
      {"measurement": "remaining activity at 1 µM", "setting": "PKBa; PKBa, 1 μM", "result": 120, "unit": "%"},
      {"measurement": "remaining activity at 100 µM", "setting": "PKBa; PKBa, 100 μM", "result": 72, "unit": "%"},
      {"measurement": "remaining activity at 1 µM", "setting": "PKBb; PKBb, 1 μM", "result": 123, "unit": "%"},
      {"measurement": "remaining activity at 100 µM", "setting": "PKBb; PKBb, 100 μM", "result": 15, "unit": "%"},
      {"measurement": "remaining activity at 1 µM", "setting": "PKCz; PKCz, 1 μM", "result": 106, "unit": "%"},
      {"measurement": "remaining activity at 100 µM", "setting": "PKCz; PKCz, 100 μM", "result": 128, "unit": "%"},
      {"measurement": "Remaining protein kinase activity", "setting": "TTBK2; 1 μM", "result": 123, "unit": "%"},
      {"measurement": "Remaining protein kinase activity", "setting": "TTBK2; 100 μM", "result": 103, "unit": "%"},
      {"measurement": "remaining activity at 1 µM", "setting": "p38d MAPK; p38d MAPK, 1 μM", "result": 116, "unit": "%"},
      {"measurement": "remaining activity at 100 µM", "setting": "p38d MAPK; p38d MAPK, 100 μM", "result": 95, "unit": "%"}
    ]}
  ]
}
